A short description of data set [1]: Median toxic dose (TD50), i.p., listed with the Rat Hippocampal Kindling Test. Conditions: Sprague-Dawley, in vivo, ip, Table 4 dose column.
Data set [2] relates to hippocampal kindled seizures. Briefly: Rat Hippocampal Kindling Model (Interruption of Kindled State). It is filed as in vivo. As to conditions: for ED50: Rattus norvegicus, ip, read-out: ED50 = median therapeutic dose; for After-Discharge Duration (% of control) / Mean Seizure Score: i.p., line of the ED50 dose; for effect on seizure activity: reference drugs. How it is done: In the present rapid hippocampal kindling model adult male Sprague-Dawley rats (300-400 g) were surgically implanted with bipolar electrodes placed in the hippocampus. […] One week later, the rats received 2-3 supra-threshold stimulations delivered every 30 min before compound treatment to ensure stability of the behavioral seizure stage and after-discharge duration. Fifteen minutes after the last stimulation, a single dose of vehicle or test compound was administered i.p (intraperitoneally). After 15 min, each rat was then stimulated every 30 min for 3 to 4 h. After each stimulation, individual seizure scores and after-discharge durations were recorded. The group mean±SEM were calculated for each parameter. Eight rats per dose and a minimum of four doses were used to establish an ED50 value. Efficacy was measured as the ability of a compound to modify the seizure score (severity of spread) and after-discharge duration (ADD; excitability) of the generalized seizures.
Thus, according to the theories presented in current literature (Ghaemi, S. N., Boiman, E. E., and Goodwin, F. K., Soc. of Bio. Psychiatry, (1999), vol. 45, pp 137-144; Stoll, A. L., and Severus, W. E., Harvard Rev. Psychiatry, July/August (1996), Vol. 4, No. 2, pp 77-89) a decrease in seizure score and/or ADD may also be predictive of the ability of a test compound to treat the cycling associated with bipolar disorder.

Data set [3] has as its system dominant rats. In words: Dominant-Submissive assay: Reduction of Dominant Behavior Model (RDBM). It is filed as in vivo, rat. As to conditions: for treatment time after which dominant behavior was significantly reduced: historical data, FIG. 2, i.p.: lithium 100 mg/kg, carbamazepine 20 mg/kg, VPA 30 mg/kg. How it is done:
Dominance and submissiveness, defined in a competition test and measured as the relative success of two food-restricted rats to gain access to a feeder, form a behavioral paradigm—the Dominant Submissive Relationship (DSR). This paradigm results in two models which are predictive of ability of test compounds (drugs) to treat mood disorders.
Test compounds are evaluated for either their ability to inhibit the dominant behavior of rats taking food at the expense of an opponent (reduction of dominant behavior model or RDBM) and thus their potential as treatments for mania; or for their ability to increase the competitive behavior of submissive rats losing such encounters (reduction of submissive behavior model or RSBM) and thus their potential as treatments for depression; (Malatynska, E., and Knapp, R. J., Neuroscience and Biobehavioral Review, 29 (2005) 715-737).
The Reduction of Dominant Behavior Model (RDBM) test, wherein the dominant animals are treated with test compound, is predictive of the ability of the test compound to treat mani. This model was applied to Compound #1 of the present invention, according to the following procedure.
(§1) Male Sprague Dawley rats (140 to 160 g) from Charles River Laboratories Wilmington, Mass. were used in this assay. Shipments of rats were received at two-week intervals. Each shipment went through five-day quarantine, one-week acclimation period, and one-week selection process, followed by five-weeks of drug or vehicle treatment to those pairs selected.
(§2) Rats were housed four per cage. Access to food was restricted to one hour per day after testing on Monday through Thursday. After testing on Friday, rats had free access to food until being fasted again on Sunday. At no time were the rats deprived of water. The food deprivation periods used had little effect on weight gain as the average weight of rats was about 300 g at the end of the study. At the conclusion of experiment rats were sacrificed by decapitation, the trunk blood and brains were collected for in vitro experiments and drug concentration measurements.
(§3) The basic testing apparatus consisted of two chambers connected with a tunnel only large enough to allow one rat to pass through at a time. On the floor, at the mid-point of the tunnel was a container of sweetened milk. […] During the five-minute daily sessions, time spent in the feeder zone by each rat was recorded by the video tracking software and saved into a text file.
(§4) The test began with a random assignment of rats into pairs. […] The time spent in the feeder zone by each animal was recorded. […] Finally, there must have been no “reversals” during the pair selection week where the putative submissive rat out-scored its dominant partner on isolated occasions. […]

Data set [4] deals with LTG-resistant amygdala kindled seizures. In words: Lamotrigine Resistant Amygdala Kindled Rat Model (Interruption of Kindled State). It is filed as in vivo. As to conditions: 100 mg/kg, i.p. How it is done:
Amygdala kindling is less severe than hippocampal kindling, such that many AEDs are effective against amygdala kindled seizures, but are ineffective against hippocampal kindled seizures.
In the LTG-resistant amygdala kindling model, rats were dosed with LTG (5 mg/kg, i.p., q.d.) during the acquisition phase of kindling. […] Once kindled (supra-threshold stimulation of 150 μA biphasic 60 Hz current pulse for 1 second; ˜2 weeks), rats were re-challenged with a high dose of LTG (45 mg/kg, i.p.) one week later to insure resistance. After a 3-4 day wash out period, rats received 2-3 supra-threshold stimulations delivered every 30 min before compound treatment to ensure stability of the behavioral seizure stage and after-discharge duration. Fifteen minutes after the last stimulation, a single dose of vehicle or test compound was administered i.p. After 15 min, each rat was then stimulated every 30 min for 3 to 4 h. After each stimulation, individual seizure scores and after-discharge durations were recorded. The group mean±SEM was calculated for each parameter.

In data set [5] the test system is amygdala kindled seizures. Briefly: Amygdala Kindling Assay (Kindling Prevention). It is filed as in vivo, rat.
The test system of data set [6] is submissive rats. In words: Dominant-Submissive assay: Reduction of Submissive Behavior Model (RSBM). It is filed as in vivo, rat. How it is done:
The Reduction of Submissive Behavior Model (RSBM) test, wherein the submissive animals are treated with test compound, is predictive of the ability of the test compound to treat depression. This model was applied to Compound #1 of the present invention, according to the following procedure.
as §1, §2, §3, §4
Significant differences between time spent on the feeder by dominant and submissive rats were determined by ANOVA using GraphPad Prism software (GraphPad Software, Inc. San Diego, Calif.) followed by a two-tailed t-test (P<0.05). […]

In data set [7] the test system is hippocampal kindled seizures. Conditions: background statement; cited from earlier work.
Data set [8] deals with amygdala kindled seizures. As to conditions: i.p., cited from earlier work.
Data set [9] has as its system LTG-resistant amygdala kindled seizures. As to conditions: 5 mg/kg, i.p., q.d.; cited from earlier work.

Some results are limits rather than exact numbers.

The term TD50 denotes the 50% point of the dose-response relation for the toxic effect studied. A high value points to harm only at a large dose. The term ED50 denotes the midpoint of the dose-response relation. With `O=C1NC(=O)C(c2ccccc2)(c2ccccc2)N1` [Phenytoin], in [1], the TD50 turned out to be 15 mg/kg. In data set [2], the ED50 stood at 150 mg/kg; the “After-Discharge Duration (% of control)” value is on record as 209 ± 43% of control; the “Mean Seizure Score” value is given as 4.3 ± 0.3; the “effect on seizure activity” value is “suppressed seizure activity, but at doses associated with toxicity”.
In data set [1], `NC(=O)N1c2ccccc2C=Cc2ccccc21` [Carbamazepine, carbamazepine] came in with a TD50 of 26 mg/kg. Besides, the “treatment time after which dominant behavior was significantly reduced” value in data set [3] was found to be 3 weeks. Besides, in data set [2], the median effective dose (ED50) was determined as 50 mg/kg; the “After-Discharge Duration (% of control)” value was 72 ± 13% of control; the “Mean Seizure Score” value was determined as 2.3 ± 0.6; the “effect on seizure activity” value is recorded as “suppressed seizure activity, but at doses associated with toxicity”.
For `NS(=O)(=O)NCc1csc2ccccc12` [Compound #1, N-(benzo[b]thien-3-ylmethyl)-sulfamide], the rats protected result in data set [4] (n=11) is reported as “Five out of eleven”. Further, the “seizure score after treatment” value in [4] (reduced from a 5) stood at 3.1. For the same molecule, the TD50 in data set [1] came out at 100 mg/kg. Moreover, the “seizure score at the conclusion of the drug- and stimulus-free period versus vehicle” value in [5] (100 mg/kg i.p. during acquisition, re-challenged in the absence of drug) is “remained significantly lower”. Also, in data set [5] (100 mg/kg i.p., FIG. 4), the “acquisition of the fully generalized kindled seizure” value is “prevented the acquisition of the fully generalized kindled seizure”. The “treatment time after which reduction of dominant behavior was statistically significant” value in data set [3] (1.25 mg/kg p.o. BID, p<0.05) is 2 weeks. In addition, the “reduction of dominant behavior (dominance level)” value in [3] (p.o. BID 1.25, 6, 30, 60 mg/kg, FIG. 1) is listed as “reduced dominant behavior in a dose-dependent manner”. Also, the “treatment time after which reduction of submissive behavior was statistically significant” value in data set [6] (30 mg/kg p.o. twice a day, p<0.05) is 5 weeks; in [6] (60 mg/kg p.o. twice a day, p<0.01), 17 days. In data set [6] (p.o. twice a day for 5 weeks, 6, 30, 60 mg/kg), the “reduction of submissive behavior (antidepressant)” value is reported as “reduced submissive behavior (antidepressant) in a dose-dependent manner”.
Take `Nc1nnc(-c2cccc(Cl)c2Cl)c(N)n1` [LTG, lamotrigine]: in data set [7], the “protection against hippocampal kindled seizures” value is given as “unable to protect against hippocampal kindled seizures”. For the same molecule, the “ED50, amygdala kindled seizures” value in data set [8] (Cl=4-50 mg/kg) was 25 mg/kg. Besides, in [8], the “ADD reduced by” value was 62% and the “amygdala kindled seizure score” value is reported as approximately 2. In addition, in data set [9], the “effect on kindling during acquisition phase” value is given as “no effect on kindling itself”.
For `CCC1(C)CC(=O)NC1=O` (centres unmarked) [Ethosuximide], the TD50 in data set [1] worked out at 189 mg/kg. In data set [2], the ED50 worked out at 250 mg/kg, the “After-Discharge Duration (% of control)” value was 78 ± 13% of control, the “Mean Seizure Score” value amounted to 5 ± 0 and the “effect on seizure activity” value is reported as “ineffective”.
Take `CCCC(CCC)C(=O)[O-].[Na+]` [VPA, sodium valproate]: in data set [3], the “treatment time after which dominant behavior was significantly reduced” value turned out to be 1 weeks.
In data set [1], `CCCC(CCC)C(=O)O` [Valproic acid] came in with a TD50 of 316 mg/kg. Moreover, in [2], the 50% effective dose (ED50) worked out at 350 mg/kg; the “After-Discharge Duration (% of control)” value is 3 ± 1.4% of control; the “Mean Seizure Score” value is 0.3 ± 0.3; the “effect on seizure activity” value was “suppressed seizure activity, but at doses associated with toxicity”. Further, the “dose giving protection similar to Compound #1 (toxic doses)” value in data set [2] (rat, in vivo) is given as more than 300 mg/kg.

(Values after patent publication US20070191450A1, “Use of Benzo-Heteroaryl Sulfamide Derivatives for the Treatment of Mania and Bipolar Disorder” (priority 2006, published 2007).)
